In article PMC7288058, “Modulating the Properties of Fe(III) Macrocyclic MRI Contrast Agents by Appending Sulfonate or Hydroxyl Groups” (Molecules, 2020):
Several values for one entry are separate records, joined by “and”; a condition that tells them apart may be missing. Equal entries are not always repeated.

How the values were obtained:
[1] = molecular target: T1, human serum albumin (HSA) (Homo sapiens, UniProt P02768); experiment: Binding to human serum albumin by ultrafiltration / ICP-MS; format: in vitro ADME; details: 0.4 mM complex, HSA 4.5% (w/v) (0.7 mM), 20 mM HEPES pH 7.4, 100 mM NaCl, 37 °C, 20 min
T1 construct: Albumin from human serum (fatty acid free) was purchased from Sigma-Aldrich; purchased Sigma-Aldrich; host or cells: purified from human serum
Protocol: Binding of the Fe(III) complexes to human serum albumin (HSA) was studied by using ultrafiltration across a MW 5000 cutoff membrane. The solutions containing HEPES buffer (pH 7.4) and salt NaCl were incubated at 37 °C for 20 min. Solutions contained 0.4 mM Fe(III) complex and 4.5 % (w/v) HSA (0.7 mM). The binding percentages were measured by using ICP-MS to analyze the Fe concentration in the unbound complex solutions after HSA incubation (Table 1). The protein binding for Fe(L3)(OH2) was higher (75%) than for Fe(L1)(OH2) (37%) or Fe(L2) (11%).
The molecular weight of 66,435 Da was used to determine the molar concentrations of HSA. Fe(III) complex (0.400 mM) solutions were incubated with 4.5% (w/v) HSA in 0.100 M NaCl and 20.0 mM HEPES buffer (pH 7.4). All solutions were incubated at 37 °C for 20 min [42]. Aliquots (0.300 mL) were placed in ultra-centrifugal filter units with a 5-kDa membrane and centrifuged at 3500× g for 10 min. The filtrates were used to determine Fe concentration from digested unbound Fe(III) complexes by using ICP-MS.

[2] = 1-octanol/water partition coefficient (log P) by ICP-MS; format: physicochemical; details: 20 mM HEPES pH 7.4, 100 mM NaCl
Protocol: To compare the lipophilicity of the complexes, the 1-octanol/water partition coefficients (log P) were determined.
Fe(III) complex solutions (0.500 mM) were prepared in 1.00 mL of H2O with 20.0 mM HEPES buffer (pH 7.4) and 100.0 mM NaCl. 0.500 mL of Fe(III) complex solution and 0.500 mL of 1-octanol was prepared. The mixture was shaken for 24 h, then centrifuged at 13,000 rpm for 1 min. Then, the solution was allowed to stand for 1 h. Iron concentration in the aqueous layer before and after mixing with 1-octanol was determined by ICP-MS. […] (3) logP=log(Co/Cw).

[3] = T1/T2 relaxivity measurements (4.7 T MRI scanner, 9.4 T NMR); details: pH 7.4, 37 °C; for r1 4.7 T / r2 4.7 T / r1 9.4 T: buffer
Protocol: The r1 and r2 relaxivity of the three complexes in buffer and HSA on a 4.7-T MRI scanner and 9.4-T NMR spectrometer are shown in Table 2. In buffer, the r1 relaxivity values of Fe(L1)(OH2) and Fe(L3)(OH2) are similar at 2.0 mM^−1∙s^−1 and 2.2. mM^−1∙s^−1, respectively, at 4.7 T. Both complexes have higher relaxivity than Fe(EDTA) (1.4 mM^−1∙s^−1 at 4.7 T) which has a single exchangeable inner-sphere water molecule. The r1 relaxivity value of the […] complex in buffer is two-fold less (1.0 mM^−1∙s^−1) than that of Fe(L1)(OH2) or […] at 4.7 T. In HSA-containing solutions, the r1 relaxivity values of Fe(L1)(OH2), Fe(L2) and Fe(L3)(OH2) change slightly, consistent with weak binding to this blood protein. […] As expected, increasing the field strength from 4.7 T to 9.4 T caused a decrease in the r1 relaxivity value of Gd(DTPA) to 2.5 mM^−1∙s^−1 from 3.1 mM^−1∙s^−1 [19]. […] This peculiar feature of Fe(III) complexes was predicted from simulation of NMRD profiles.
Relaxivity of the complexes was determined at 4.7 T (small animal MRI) and 9.4 T (400 MHz NMR). Both T1 and T2 experiments were performed at 37 °C for the concentration range of 50.0 µM to 0.400 mM Fe(III) complex. The solutions contained 0.100 M NaCl and HEPES buffer (pH 7.4, 20 mM). An inversion recovery True FISP acquisition was used to measure T1 relaxation rate constants. T2 relaxation rates were measured by using multi-echo, Carr–Purcell–Meiboom–Gill spin-echo sequence with a fixed TR of 3000 ms and TE times ranging from 20–1200 ms. The T1 and T2 relaxivity values were calculated by using linear regression fitting of 1/T1 (s^−1) and 1/T2 (s^−1) versus concentration (mM) in Microsoft Excel.

[4] = pH-potentiometric titrations of the intact Fe(III) complexes; format: physicochemical; details: potentiometric titration, 25 °C, 0.10 M NaCl, 1–2 mM meglumine
Text: The pH-potentiometric titrations of the intact Fe(III) complexes were studied to determine the equilibrium constants for deprotonation of ligand groups such as the hydroxyl pendants or water ligand. […] For Fe(L1)(OH2) and Fe(L3)(OH2), either an alcohol pendant group or water ligand might ionize but, for Fe(L2), we only consider alcohol pendant groups. […] Ionization of the water ligand at near neutral pH cannot be ruled out, but is not considered to be likely based on prior studies [19]. […] The group that produces this ionization is not likely to be a bound water or hydroxyl group given that the coordination sphere is very similar to that of Fe(L3)(OH2). […] A weak hydrogen bonding interaction to a hydroxyl pendent or bound water might produce such an environment.
All solutions were prepared by using carbonate-free water.
Fe(L1)(OH2): The solution contained 0.527 mM Fe(III) complex added as the chloride salt, 1.00 mM meglumine, 0.100 M NaCl, and 3.72 mM HCl to decrease the pH of the solution to pH 3 in total volume of 20.00 mL. The solution was titrated with a 98.83 mM NaOH solution. Then, 5.00 µL aliquots of the NaOH solution were added over 60 s with an interval of 300 s using a Nexus 3000 High Flow Syringe Pump from Chemyx Inc (Stafford, TX, USA) equipped with a 10-mL Hamilton gastight syringe.
Fe(L2): The solution contained 0.75 mM Fe(III) complex added as the chloride salt, 2.00 mM meglumine, 0.100 M NaCl, and 6.00 mM HCl to decrease the pH of the solution to pH 3 in total volume of 25.00 mL. The solution was titrated with a 94.86 mM NaOH solution. Then, 5.00 µL aliquots of the NaOH solution were added over 60 s with an interval of 300 s using a Nexus 3000 High Flow Syringe Pump from Chemyx Inc (Stafford, TX) equipped with a 10-mL Hamilton gastight syringe.
In all fits of the data, meglumime was used as a third reagent, and the equilibrium equation corresponding to its ionization was added to the model data fit as determined from separate titrations. The titration was completed under Ar(g) at 25 °C. The titrations were monitored from pH 3 to pH 11. Equilibrium constants for all complexes were determined by fitting the data using [sequence] 2013 Version 6.0.1. Speciation diagrams were plotted by utilizing HySS Version 4.0.31.

[5] = Aqueous solubility (observations); format: physicochemical; details: for aqueous solubility: words
[6] = Kinetic inertness / dissociation monitored by UV-Vis absorbance; format: physicochemical; details: 100 mM HCl, 37 °C
Protocol: The complexes have electronic absorbance bands at 325 nm and 330 nm with extinction coefficients ranging from 1570 M^−1∙cm^−1 to 3800 M^−1∙cm^−1 (Figures S16–S21, Table S2, Supplementary Materials). These absorbance peaks were monitored to study the dissociation of the complexes in 100 mM HCl acid solution, or in solutions containing 25 mM hydrogen carbonate and 0.40 mM hydrogen phosphate at 37 °C. […] In acidic solution (100 mM HCl), the dissociation of Fe(L1)(OH2) was estimated as 18.1% over 24 h and 53.6% over 72 h based on absorbance changes. For comparison, the dissociation of the Fe(L2) complex in acidic solution (100 mM HCl) was 7.9% over 48 h, and the dissociation of Fe(L3)(H2O) was 14% over 24 h and 38% over 72 h.
Absorbance of Fe(III) complexes was measured from 200–800 nm over a period of 48 and 72 h. A Peltier temperature controller was used to keep the temperature at 37 °C. The sample solutions contained 0.200 mM Fe(III) complex. Solutions for kinetic inertness experiments contained 25.0 mM NaHCO3, […] Na2HPO4, and 10.0 mM HEPES buffer (pH 7.4). Acidic solutions for the kinetic inertness experiments contained 0.10 M HCl. For each of these experiments, extinction coefficients were determined by using by using the Beer–Lambert law as given in Table S2 (Supplementary Materials).

T1 sequence (P02768 25-609): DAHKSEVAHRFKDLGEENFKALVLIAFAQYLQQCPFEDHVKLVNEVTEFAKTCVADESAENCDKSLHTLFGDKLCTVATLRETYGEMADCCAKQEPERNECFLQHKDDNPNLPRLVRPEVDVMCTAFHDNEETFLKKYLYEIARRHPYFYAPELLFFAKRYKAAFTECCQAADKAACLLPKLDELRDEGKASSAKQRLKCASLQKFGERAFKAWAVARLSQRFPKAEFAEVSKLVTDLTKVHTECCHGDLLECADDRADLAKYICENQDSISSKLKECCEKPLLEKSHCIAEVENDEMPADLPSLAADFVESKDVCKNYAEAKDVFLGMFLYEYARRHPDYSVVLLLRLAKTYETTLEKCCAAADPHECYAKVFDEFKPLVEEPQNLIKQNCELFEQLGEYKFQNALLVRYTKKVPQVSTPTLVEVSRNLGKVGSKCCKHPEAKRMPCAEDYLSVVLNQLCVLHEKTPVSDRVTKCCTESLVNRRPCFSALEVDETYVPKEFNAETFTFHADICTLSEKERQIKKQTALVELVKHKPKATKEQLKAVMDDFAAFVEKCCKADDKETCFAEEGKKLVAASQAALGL

solubility ([5]; pH 6–7, concentration needed for 17O-NMR) [mM] | dissociation in acidic solution ([6]; over 48 h) [%] | SMILES | HSA Binding (%) [1] | Log P [2] | r1 4.7 T [3] | r2 4.7 T [3] [mM⁻¹ s⁻¹] | r1 9.4 T [3] [mM⁻¹ s⁻¹] | r1 in HSA 4.7 T [3] [mM⁻¹ s⁻¹] | r2 in HSA 4.7 T [3] [mM⁻¹ s⁻¹] | Log K1 (pKa2) [4] | Log K2 (pKa1) [4] | aqueous solubility [5] | dissociation in acidic solution ([6]; over 24 h, estimated from absorbance changes) [%] | dissociation in acidic solution ([6]; over 72 h, estimated from absorbance changes) [%]
– | – | C[C@H]([O-])CN1CCN(CCCS(=O)(=O)[O-])CCN(C[C@H](C)O)CC1.O.[Fe+3] [Fe(L1)(OH2)] | 37% and 36.8 ± 0.2% | −1.67 | 2.0 mM⁻¹ s⁻¹ and 2.0 ± 0.19 mM⁻¹ s⁻¹ | 6.1 ± 0.77 | 2.0 ± 0.2 | 2.5 ± 0.63 | 5.5 ± 0.98 | 7.55 ± 0.08 | 3.39 ± 0.17 | excellent aqueous solubility | 18.1 | 53.6
< 10 | 7.9 | C[C@H]([O-])CN1CCN(C[C@H](C)O)CCN(C[C@H](C)O)CC1.[Fe+3] [Fe(L2)] | 11% and 11.2 ± 2.8% | −1.60 ± 0.1 | 0.97 ± 0.12 mM⁻¹ s⁻¹ | 1.8 ± 0.47 | 1.4 ± 0.08 | 1.2 ± 0.22 | 2.3 ± 1.1 | 11.78 ± 0.11 | 6.57 ± 0.05 | moderate solubility | – | –
